Article PMC5570900, “Exploiting a novel conformational switch to control innate immunity mediated by complement protein C3a” (Nature Communications, 2017)

Tests used:
C3aR [1] = molecular target: T1, C3aR (Rattus norvegicus, UniProt O55197); assay: Agonist-induced acute rat paw edema and immune responses; type: in vivo
T1 construct: characterize for the first time a C3aR-induced innate immune response in vivo in rats; from tissue; host or cells: live male Wistar rats, hind paw
T1 sequence (O55197 1-473): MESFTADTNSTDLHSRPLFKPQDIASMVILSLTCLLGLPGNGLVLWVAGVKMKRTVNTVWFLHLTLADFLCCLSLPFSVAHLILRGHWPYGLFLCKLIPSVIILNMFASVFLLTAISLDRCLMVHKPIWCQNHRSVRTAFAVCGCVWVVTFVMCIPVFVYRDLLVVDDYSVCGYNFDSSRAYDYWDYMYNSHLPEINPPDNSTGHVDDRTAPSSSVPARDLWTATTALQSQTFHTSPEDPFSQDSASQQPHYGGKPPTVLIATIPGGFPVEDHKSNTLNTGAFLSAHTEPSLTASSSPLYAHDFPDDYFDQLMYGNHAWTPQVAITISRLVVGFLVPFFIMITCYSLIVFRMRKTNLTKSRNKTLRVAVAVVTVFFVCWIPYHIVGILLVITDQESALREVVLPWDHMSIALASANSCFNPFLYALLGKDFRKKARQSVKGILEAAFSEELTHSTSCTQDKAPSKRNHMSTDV
Experimental: (§1) Male Wistar rats (8–9 weeks) were injected with BR103 (3, 350 μg in 100 μL isotonic saline) into the plantar surface of both hind paw pads using a 30G needle. The inhibitor cromolyn (20 mg/kg in 5% DMSO) was injected subcutaneously 30 min before the agonist. The antagonist BR111 (6, 5–20 mg/kg in olive oil) was administered orally as a single dose 2 h before the agonist. Paw thickness and width were measured using digital calipers (WPI) at 0, 0.5, 2, 6 and 24 h after agonist BR103 administration. Hind paw size is expressed as % change in area from baseline after 0.5 h and then normalized against maximum swelling induced by agonist alone. Researchers were not blinded to treatments given.
(§2) Rat paw tissue was collected and fixed in 4% paraformaldehyde (pH 7.4) for 2 h in the cold room (4 °C). The rat paw tissue was then transferred into falcon tubes containing 30% sucrose solution in PBS and left overnight in the cold room. The next day, rat paw tissue was embedded with the Optimal Cutting Temperature compound (OCT, Sakura Finetek, USA) and stored in the −80 °C freezer before being used for making cryo-sections for histological analysis. Frozen sections of 5 microns were prepared using a cryostat-microtome (Leica Biosystems, Germany) and stained using standard protocols on the same day. In normal histological staining, such as with alcian blue and safranin O and hematoxylin and eosin (H&E), samples were briefly washed with distilled water before staining. In alcian blue and safranin O, samples were stained with 0.1% alcian blue (Sigma-Aldrich, USA) and 0.5% safranin O (Sigma-Aldrich, USA) before being mounted in mounting medium. In H&E, samples were stained with hematoxylin (Sigma-Aldrich, USA) and 0.1% eosin (Sigma-Aldrich, USA) before being mounted in mounting medium. In immunohistochemistry, samples were briefly rinsed with PBS to remove OCT and incubated with blocking medium (PBS, 0.1% triton X-100, 10% horse serum) for 1 h at room temperature. Samples were incubated with primary antibody medium (PBS, 4% horse serum, 1:200 histamine or 1:200 of tryptase or 1:150 ED1 or 1:200 ED2 antibodies) overnight at 4 °C. The next day, samples were washed with PBS and were incubated with the secondary antibody medium (PBS, 4% horse serum, detection antibody 1:1000) for 1 h at room temperature. The samples were briefly rinsed, dried and counterstained with DAPI (Invitrogen, Australia). Primary antibodies for histamine (Sigma-Aldrich, USA, H2403, monoclonal rabbit anti-rat IgG, 1: 200), tryptase (Abcam, Australia, ab2378, monoclonal mouse anti-rat IgG, 1:200), ED1 (Serotec, UK, MCA341R, monoclonal mouse anti-rat, 1:150), ED2 (Serotec, UK, MCA3424R, monoclonal mouse anti-rat, 1:200) were purchased from commercial sources. Secondary detection antibody was purchased from (Invitrogen, Australia). ED1 & ED2 positive cells were quantified using FIJI/ImageJ 1.42q software, U.S. National Institutes of Health, Bethesda, MD, USA[44]. All microscope images were obtained using an Olympus BX-51 upright microscope with Olympus DP-71 12Mp colour camera, utilizing DP Capture and DP Manager software packages (Olympus, Tokyo, Japan). Researchers who performed histological analysis and scoring were blinded to the sample identity.
Rat paw tissues were collected and immediately frozen with liquid nitrogen. The frozen rat paw tissue samples were weighed and crushed into smaller pieces with a mortar and pestle in liquid nitrogen. The crushed tissues were added to MPO buffer (50 mM potassium phosphate buffer, pH 6.0) to make up a concentration of 200 mg/mL and homogenized using Zirconium oxide beads (Next Advance, USA) and the Bullet Blender® homogeniser (Next Advance, USA). The homogenized tissues were then diluted to 100 mg/mL with the MPO buffer containing 1% hexadecyl trimethylamonium bromide (Sigma-Aldrich, USA) and underwent three cycles of freeze, thaw, and sonication. […]

C3aR [2] = molecular target: T1, C3aR; assay: Antagonism of BR103-induced rat paw edema by oral C3aR antagonist; type: in vivo
Experimental: as §1, §2
Rat paw tissues were collected and immediately frozen with liquid nitrogen. The frozen rat paw tissue samples were weighed and crushed into smaller pieces with a mortar and pestle in liquid nitrogen. […]

[3] = 350 µg per paw i.pl., 0.5 h, vs vehicle
[4] = male Wistar rats, 350 µg per paw, i.pl.

| Activated mast cells in paw tissue (C3aR [1]; [3]) | Histamine secretion in paw tissue (C3aR [1]; [3]) | Tryptase-positive cells in paw tissue (C3aR [1]; [3]) | Paw edema induction (C3aR [1]; [4]) | Time of peak paw swelling (C3aR [1]; [4]) [h] | Effect on BR103-induced mast cell activation and degranulation and histamine secretion (C3aR [2]; 20 mg/kg p.o., 2 h prior, 0.5 h after agonist) | Effect on BR103-induced neutrophil activation (MPO activity) (C3aR [2]; 20 mg/kg p.o., 2 h prior, 6 h after BR103) | Effect on BR103-induced paw edema (C3aR [2]; oral pretreatment 2 h before BR103 350 µg/paw i.pl., 5–20 mg/kg p.o., swelling at 30 min) | SMILES | Infiltration of ED1+ macrophages (C3aR [1]; [3]) | Resident ED2+ macrophage cell numbers (C3aR [1]; 350 µg per paw i.pl., vs vehicle) | Proinflammatory gene expression (Il1β, Il6, Tnf, Ccl3, Mcp1) in paw (C3aR [1]; 350 µg/paw i.pl., 0.5, 6, 24 h, vs vehicle) | Myeloperoxidase (MPO) activity in paw (C3aR [1]; 350 µg/paw i.pl., 30 min, 6 h, 24 h, vs sham) | Effect on BR103-induced infiltration of ED1 macrophages (C3aR [2]; 20 mg/kg p.o., 2 h prior, 0.5 h) | Effect on BR103-induced proinflammatory cytokine and chemokine gene expression (C3aR [2]; 20 mg/kg p.o., 2 h prior, 30 min) |
| --- | --- | --- | --- | --- | --- | --- | --- | --- | --- | --- | --- | --- | --- | --- |
| increased number of activated mast cells | increased histamine secretion | decreased tryptase-positive cells | induced an acute inflammatory edema | 0.5 | – | – | – | Cc1[nH]c(C(c2ccccc2)c2ccccc2)nc1C(=O)N[C@@H](CCCNC(=N)N)C(=O)O [Compound 3] | temporal increase in infiltration of inflammatory ED1^+ macrophages | without significantly affecting resident ED2^+ macrophage cell numbers | induced the upregulation of many proinflammatory genes | increased myeloperoxidase (MPO) activity at 6 h, but not at 30 min or 24 h | – | – |
| – | – | – | – | – | attenuated | attenuated neutrophil activation at 6 h | strongly inhibited acute rat paw edema | N=C(N)NCCCC(NC(=O)c1ccc(C(c2ccccc2)c2ccccc2)s1)C(=O)O (centres unmarked) [Compound 6] | – | – | – | – | prevented the increased infiltration of inflammatory ED1 macrophages | suppression of BR103-induced gene expression of proinflammatory cytokines and chemokines |
